Measurements published in patent US8134015B2, “Compound inhibiting in vivo phosphorous transport and medicine containing the same” (Kyowa Hakko Kirin Co., Ltd., priority 2003, dated 2012).
pIC50: −log10 of the molar value. Counter-ions that a name gives are not always drawn.

Biological target: T1, rat NaPi-2b (Rattus norvegicus, UniProt Q9JJ09)
T1 construct: expressed in transfected cells; host or cells: Xenopus oocytes injected with cRNA
T1 sequence (Q9JJ09 1-695): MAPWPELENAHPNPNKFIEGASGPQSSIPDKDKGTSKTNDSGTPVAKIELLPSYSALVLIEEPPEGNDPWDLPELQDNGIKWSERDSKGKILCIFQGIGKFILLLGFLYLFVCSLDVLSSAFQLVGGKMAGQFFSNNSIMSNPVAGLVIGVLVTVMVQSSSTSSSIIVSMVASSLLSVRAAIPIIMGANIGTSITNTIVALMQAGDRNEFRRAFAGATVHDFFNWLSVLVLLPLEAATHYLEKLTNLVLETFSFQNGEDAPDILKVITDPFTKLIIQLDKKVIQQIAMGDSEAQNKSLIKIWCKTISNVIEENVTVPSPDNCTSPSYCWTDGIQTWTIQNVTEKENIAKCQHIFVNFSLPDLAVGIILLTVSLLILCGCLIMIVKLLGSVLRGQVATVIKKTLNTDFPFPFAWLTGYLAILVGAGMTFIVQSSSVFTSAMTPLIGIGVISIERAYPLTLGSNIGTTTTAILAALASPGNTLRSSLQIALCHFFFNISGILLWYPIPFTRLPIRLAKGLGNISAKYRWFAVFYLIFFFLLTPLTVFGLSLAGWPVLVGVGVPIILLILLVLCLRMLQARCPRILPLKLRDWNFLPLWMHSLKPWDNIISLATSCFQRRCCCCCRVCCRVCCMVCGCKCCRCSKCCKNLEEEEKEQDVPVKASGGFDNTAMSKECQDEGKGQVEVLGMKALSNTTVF
Assay: Sodium-dependent phosphate uptake of Xenopus oocytes which expressed NaPi-2b (32P)
Assay type: cell-based
Details: for pIC50: Xenopus oocytes expressing rat NaPi-2b, 32P radioactive phosphorus, read-out: IC50 (phosphate uptake inhibitory activity); for inhibition at 300 µM: phosphate uptake, oocytes expressing rat NaPi-2b, determined from inhibition curve
Method in brief: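 Percent inhibition at 300 μM and 100 μM comes from the same inhibition curve of 32P uptake. Assay used oocytes expressing rat NaPi-2b after 2 days of culture.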

Row | SMILES | pIC50 | inhibition at 300 µM
1 | CCN(CC)CCN(C)Cc1cccc(C(=O)Nc2ccc(N3CCCC3)cc2C(=O)N/N=C/c2ccc(C)c(C)c2)c1 [Compound 916, 3-{[(2-Diethylamino-ethyl)-methyl-amino]-methyl}-N-[2-(3,4-dimethyl-benzylidene-hydrazinocarbonyl)-4-pyrrolidin-1-yl-phenyl]-benzamide] | 5.28 | 
2 | Cc1ccc(/C=N/NC(=O)c2cc(Br)ccc2NC(=O)c2cccnc2)cc1C [Compound 176, N-[4-Bromo-2-(3,4-dimethyl-benzylidene-hydrazinocarbonyl)-phenyl]-nicotinamide] | 5.39 | 
3 | Cc1cccc(/C=N/NC(=O)c2cc(Cl)ccc2NC(=O)c2ccncc2)c1 [Compound 191, N-[4-Chloro-2-(3-methyl-benzylidene-hydrazinocarbonyl)-phenyl]-isonicotinamide] | 4.92 | 
4 | Cc1csc(C(=O)N/N=C/c2cccc(F)c2)c1NC(=O)c1cccc(CN2CCN(CCO)CC2)c1 [Compound 535, N-[2-(3-Fluoro-benzylidene-hydrazinocarbonyl)-4-methyl-thiophen-3-yl]-3-[4-(2-hydroxy-ethyl)-piperazin-1-ylmethyl]-benzamide] |  | 53%
5 | CCSCCNCc1ccc(C(=O)Nc2ccc(Br)cc2C(=O)N/N=C/c2ccc(Cl)c(C(F)(F)F)c2)cc1 [Compound 769, N-[4-Bromo-2-(4-chloro-3-trifluoromethyl-benzylidene-hydrazinocarbonyl)-phenyl]-4-[(2-ethylsulfanyl-ethylamino)-methyl]-benzamide] | 5.35 | 
6 | CCN(CC)CCN(CCN(CC)CC)Cc1cccc(C(=O)Nc2ccc(N3CCCCC3)cc2C(=O)N/N=C/c2ccc(OC)cc2)c1 [Compound 910, 3-{[Bis-(2-diethylamino-ethyl)-amino]-methyl}-N-[2-(4-methoxy-benzylidene-hydrazinocarbonyl)-4-piperidin-1-yl-phenyl]-benzamide] | 5.11 | 
7 | COc1cccc(/C=N/NC(=O)c2cc(Cl)ccc2NC(=O)c2cccc(CSc3nnnn3CCN(C)C)c2)c1 [Compound 468, N-[4-Chloro-2-(3-methoxy-benzylidene-hydrazinocarbonyl)-phenyl]-3-[1-(2-dimethylamino-ethyl)-1H-tetrazol-5-ylsulfanylmethyl]-benzamide] | 4.65 | 
8 | Cc1cccc(/C=N/NC(=O)c2cc(Cl)ccc2NC(=O)c2cccc(CN(C)CCO)c2)c1 [Compound 396, N-[4-Chloro-2-(3-methyl-benzylidene-hydrazinocarbonyl)-phenyl]-3-{[(2-hydroxy-ethyl)-methyl-amino]-methyl}-benzamide] | 5.09 | 
9 | Cc1ccc(/C=N/NC(=O)c2cscc2NC(=O)c2cccc(CN3CCN(CCO)CC3)c2)cc1 [Compound 981, 3-[4-(2-Hydroxy-ethyl)-piperazin-1-ylmethyl]-N-[4-(4-methyl-benzylidene-hydrazinocarbonyl)-thiophen-3-yl]-benzamide] | 4.91 | 
10 | O=C(Nc1ccccc1C(=O)N/N=C/c1ccc(O)cc1)c1cccc(F)c1 [Compound 86, 3-Fluoro-N-[2-(4-hydroxy-benzylidene-hydrazinocarbonyl)-phenyl]-benzamide] | 4.94 | 
11 | O=C(Nc1ccc(Br)cc1C(=O)N/N=C/c1ccc(F)cc1)c1ccc(CSCCCO)cc1 [Compound 276, N-[4-Bromo-2-(4-fluoro-benzylidene-hydrazinocarbonyl)-phenyl]-4-(3-hydroxy-propylsulfanylmethyl)-benzamide] | 5.21 | 
12 | Cc1cccc(C=NNC(=O)c2cc(Br)ccc2NC(=O)c2ccc(C(C)(C)C)cc2)c1 [Compound 248, N-[4-Bromo-2-(3-methyl-benzylidene-hydrazinocarbonyl)-phenyl]-4-tert-butyl-benzamide] |  | 30.3%
13 | COc1cc(/C=N/NC(=O)c2ccccc2NC(=O)c2ccc(OC)c(OC)c2)cc(OC)c1 [Compound 53, N-[2-(3,5-Dimethoxy-benzylidene-hydrazinocarbonyl)-phenyl]-3,4-dimethoxy-benzamide] | 5.39 | 
14 | Cc1ccc(/C=N/NC(=O)c2cc(Br)ccc2NC(=O)c2ccc(CN3CCC(CCO)CC3)cc2)cc1C [Compound 340, N-[4-Bromo-2-(3,4-dimethyl-benzylidene-hydrazinocarbonyl)-phenyl]-4-[4-(2-hydroxy-ethyl)-piperidin-1-ylmethyl]-benzamide] | 5.08 | 

The remaining lines, values ahead:

Row | pIC50 | inhibition at 300 µM | SMILES
15 | 5.54 |  | Cc1ccc(/C=N/NC(=O)c2cc(Br)ccc2NC(=O)c2ccc(CN3CCC(CO)CC3)cc2)cc1C [Compound 332, N-[4-Bromo-2-(3,4-dimethyl-benzylidene-hydrazinocarbonyl)-phenyl]-4-(4-hydroxymethyl-piperidin-1-ylmethyl)-benzamide]
16 | 5.55 |  | COc1ccc(C(=O)Nc2ccccc2C(=O)N/N=C/c2cccc(C)c2)cc1OC [Compound 20, 3,4-Dimethoxy-N-[2-(3-methyl-benzylidene-hydrazinocarbonyl)-phenyl]-benzamide]
17 | 5.87 |  | Cc1csc(NC(=O)c2cccc(CN(CC(C)O)CC(C)O)c2)c1C(=O)N/N=C/c1ccc(Cl)c(C(F)(F)F)c1 (stereo not shown) [Compound 851, 3-{[Bis-(2-hydroxy-propyl)-amino]-methyl}-N-[3-(4-chloro-3-trifluoromethyl-benzylidene-hydrazinocarbonyl)-4-methyl-thiophen-2-yl]-benzamide; hydrochloride]
18 | 5.86 |  | O=C(Nc1ccc(Cl)cc1C(=O)N/N=C/c1cccc(F)c1)c1cccc(CN2CCC(N3CCCCC3)CC2)c1 [Compound 368, 3-[1,4′]Bipiperidinyl-1′-ylmethyl-N-[4-chloro-2-(3-fluoro-benzylidene-hydrazinocarbonyl)-phenyl]-benzamide]
19 | 5.91 |  | COc1ccc(C(=O)Nc2ccc(Br)cc2C(=O)N/N=C/c2cccc(Cl)c2)cc1OC [Compound 59, N-[4-Bromo-2-(3-chloro-benzylidene-hydrazinocarbonyl)-phenyl]-3,4-dimethoxy-benzamide]
20 | > 5.52 |  | COc1ccc(/C=N/NC(=O)c2cc(I)ccc2NC(=O)c2cccc(CN3CCC(N4CCCCC4)CC3)c2)cc1 [Compound 489, 3-[1,4′]Bipiperidinyl-1′-ylmethyl-N-[4-iodo-2-(4-methoxy-benzylidene-hydrazinocarbonyl)-phenyl]-benzamide]
21 | 5.75 |  | Cc1ccc(/C=N/n2c(-c3cccc(CSc4nc[nH]n4)c3)nc3sc4c(c3c2=O)CCCC4)cc1C [Compound 646, 3-[(3,4-Dimethyl-benzylidene-)-amino]-2-[3-(1H-[1,2,4]triazol-3-ylsulfanylmethyl)-phenyl]-5,6,7,8-tetrahydro-3H-benzo[4,5]thieno[2,3-d]pyrimidin-4-one]
22 | 6.51 |  | Cc1ccc(/C=N/NC(=O)c2cc(N3CCCC3)ccc2NC(=O)c2cccc(CSCCO)c2)cc1C [Compound 919, N-[2-(3,4-Dimethyl-benzylidene-hydrazinocarbonyl)-4-pyrrolidin-1-yl-phenyl]-3-(2-hydroxy-ethylsulfanylmethyl)-benzamide]
23 | 5.39 |  | COc1ccc(C(=O)Nc2ccccc2C(=O)N/N=C/c2cccc(O)c2)cc1OC [Compound 18, N-[2-(3-Hydroxy-benzylidene-hydrazinocarbonyl)-phenyl]-3,4-dimethoxy-benzamide]
24 | > 6.00 |  | CCN(CC)CCN(C)Cc1cccc(C(=O)Nc2scc(C)c2C(=O)N/N=C/c2ccc(Cl)c(C(F)(F)F)c2)c1 [Compound 567, N-[3-(4-Chloro-3-trifluoromethyl-benzylidene-hydrazinocarbonyl)-4-methyl-thiophen-2-yl]-3-{[(2-diethylamino-ethyl)-methyl-amino]-methyl}-benzamide]
25 | > 5.52 |  | O=C(Nc1ccc(Br)cc1C(=O)N/N=C/c1cccc(F)c1)c1ccc(CSCCO)cc1 [Compound 261, N-[4-Bromo-2-(3-fluoro-benzylidene-hydrazinocarbonyl)-phenyl]-4-(2-hydroxy-ethylsulfanylmethyl)-benzamide]
26 | > 6.00 |  | COc1ccc(/C=N/NC(=O)c2cc(N3CCC(C)CC3)ccc2NC(=O)c2cccc(CSCCO)c2)cc1 [Compound 1071, 3-(2-Hydroxy-ethylsulfanylmethyl)-N-[2-(4-methoxy-benzylidene-hydrazinocarbonyl)-4-(4-methyl-piperidin-1-yl)-phenyl]-benzamide]
27 | 5.71 |  | CC(O)CN(Cc1cccc(C(=O)Nc2sc3c(c2C(=O)N/N=C/c2ccc(Cl)c(C(F)(F)F)c2)CCC3)c1)CC(C)O (stereo not shown) [Compound 808, 3-{[Bis-(2-hydroxy-propyl)-amino]-methyl}-N-[3-(4-chloro-3-trifluoromethyl-benzylidene-hydrazinocarbonyl)-5,6-dihydro-4H-cyclopenta[b]thiophen-2-yl]-benzamide]
28 | > 5.52 |  | O=C(Nc1ccc(I)cc1C(=O)N/N=C/c1cccc(O)c1)c1cccc(CN2CCC(N3CCCCC3)CC2)c1 [Compound 490, 3-[1,4′]Bipiperidinyl-1′-ylmethyl-N-[2-(3-hydroxy-benzylidene-hydrazinocarbonyl)-4-iodo-phenyl]-benzamide]
